One assay addresses T1, TGF-beta receptor type-1 (Homo sapiens, UniProt P36897).
T1 sequence (P36897 whole entry): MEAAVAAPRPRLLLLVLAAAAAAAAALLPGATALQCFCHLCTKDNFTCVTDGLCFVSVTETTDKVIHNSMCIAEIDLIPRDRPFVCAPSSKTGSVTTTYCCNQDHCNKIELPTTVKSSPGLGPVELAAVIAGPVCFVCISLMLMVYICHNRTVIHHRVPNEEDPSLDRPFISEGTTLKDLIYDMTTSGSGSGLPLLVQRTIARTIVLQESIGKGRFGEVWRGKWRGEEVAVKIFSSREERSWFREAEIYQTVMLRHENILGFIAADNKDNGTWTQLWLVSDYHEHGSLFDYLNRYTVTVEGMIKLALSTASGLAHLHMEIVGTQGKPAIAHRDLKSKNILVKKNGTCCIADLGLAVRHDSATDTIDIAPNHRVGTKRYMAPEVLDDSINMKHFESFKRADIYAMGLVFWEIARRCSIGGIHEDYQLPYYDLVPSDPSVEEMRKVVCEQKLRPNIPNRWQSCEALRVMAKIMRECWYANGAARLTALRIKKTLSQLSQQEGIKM
The assay is described as follows: Inhibition of ALK5. Particulars: read-out: pIC50 (converted).

Another assay concerns the target Aurora kinase B (Homo sapiens, UniProt Q96GD4). Put plainly: Inhibition of aurora B.
In the next assay the target is T2, Aurora kinase A (Homo sapiens, UniProt O14965).
T2 sequence (O14965 whole entry): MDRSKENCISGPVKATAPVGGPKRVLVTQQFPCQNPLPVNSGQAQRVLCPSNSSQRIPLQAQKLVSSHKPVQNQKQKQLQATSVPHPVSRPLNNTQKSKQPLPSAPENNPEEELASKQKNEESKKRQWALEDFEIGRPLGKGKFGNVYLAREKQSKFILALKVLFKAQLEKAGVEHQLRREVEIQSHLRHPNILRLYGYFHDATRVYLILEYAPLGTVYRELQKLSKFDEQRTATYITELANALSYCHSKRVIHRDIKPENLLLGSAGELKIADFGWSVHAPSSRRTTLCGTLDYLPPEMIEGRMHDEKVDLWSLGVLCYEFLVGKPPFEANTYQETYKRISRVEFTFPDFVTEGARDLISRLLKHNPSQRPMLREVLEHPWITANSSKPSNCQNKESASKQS
Put plainly: Inhibition of aurora A.

In assay [1] the target is Rho-associated protein kinase 1 (Homo sapiens, UniProt Q13464). Put plainly: Inhibition of ROCK1.
In assay [2] the target is T3, 3-phosphoinositide-dependent protein kinase 1 (Homo sapiens, UniProt O15530).
T3 sequence (O15530 whole entry): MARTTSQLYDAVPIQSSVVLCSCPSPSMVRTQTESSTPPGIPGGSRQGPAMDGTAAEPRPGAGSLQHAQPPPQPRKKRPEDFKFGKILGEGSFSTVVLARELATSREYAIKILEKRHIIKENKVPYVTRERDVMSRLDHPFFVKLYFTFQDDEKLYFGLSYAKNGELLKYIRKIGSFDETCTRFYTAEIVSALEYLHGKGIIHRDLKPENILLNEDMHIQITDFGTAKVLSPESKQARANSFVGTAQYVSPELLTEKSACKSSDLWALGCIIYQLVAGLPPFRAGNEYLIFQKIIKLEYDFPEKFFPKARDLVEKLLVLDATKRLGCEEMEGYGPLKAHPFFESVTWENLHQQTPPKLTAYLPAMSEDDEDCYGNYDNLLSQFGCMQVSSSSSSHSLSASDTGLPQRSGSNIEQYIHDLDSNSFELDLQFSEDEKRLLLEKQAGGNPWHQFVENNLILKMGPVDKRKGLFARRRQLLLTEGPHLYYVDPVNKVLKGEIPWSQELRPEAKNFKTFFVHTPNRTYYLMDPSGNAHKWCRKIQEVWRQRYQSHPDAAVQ
Put plainly: Inhibition of PDK1.

Some results are limits rather than exact numbers.

Sequence of Aurora kinase B (Q96GD4 whole entry): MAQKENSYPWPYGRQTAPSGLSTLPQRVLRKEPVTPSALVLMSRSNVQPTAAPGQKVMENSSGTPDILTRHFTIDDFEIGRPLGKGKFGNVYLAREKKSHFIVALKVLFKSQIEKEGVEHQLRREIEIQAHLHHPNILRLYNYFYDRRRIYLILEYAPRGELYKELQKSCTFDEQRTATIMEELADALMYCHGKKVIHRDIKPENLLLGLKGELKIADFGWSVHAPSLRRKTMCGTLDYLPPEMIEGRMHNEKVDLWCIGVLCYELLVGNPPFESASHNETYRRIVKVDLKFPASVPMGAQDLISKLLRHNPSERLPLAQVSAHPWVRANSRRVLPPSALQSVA
Sequence of Rho-associated protein kinase 1 (Q13464 whole entry): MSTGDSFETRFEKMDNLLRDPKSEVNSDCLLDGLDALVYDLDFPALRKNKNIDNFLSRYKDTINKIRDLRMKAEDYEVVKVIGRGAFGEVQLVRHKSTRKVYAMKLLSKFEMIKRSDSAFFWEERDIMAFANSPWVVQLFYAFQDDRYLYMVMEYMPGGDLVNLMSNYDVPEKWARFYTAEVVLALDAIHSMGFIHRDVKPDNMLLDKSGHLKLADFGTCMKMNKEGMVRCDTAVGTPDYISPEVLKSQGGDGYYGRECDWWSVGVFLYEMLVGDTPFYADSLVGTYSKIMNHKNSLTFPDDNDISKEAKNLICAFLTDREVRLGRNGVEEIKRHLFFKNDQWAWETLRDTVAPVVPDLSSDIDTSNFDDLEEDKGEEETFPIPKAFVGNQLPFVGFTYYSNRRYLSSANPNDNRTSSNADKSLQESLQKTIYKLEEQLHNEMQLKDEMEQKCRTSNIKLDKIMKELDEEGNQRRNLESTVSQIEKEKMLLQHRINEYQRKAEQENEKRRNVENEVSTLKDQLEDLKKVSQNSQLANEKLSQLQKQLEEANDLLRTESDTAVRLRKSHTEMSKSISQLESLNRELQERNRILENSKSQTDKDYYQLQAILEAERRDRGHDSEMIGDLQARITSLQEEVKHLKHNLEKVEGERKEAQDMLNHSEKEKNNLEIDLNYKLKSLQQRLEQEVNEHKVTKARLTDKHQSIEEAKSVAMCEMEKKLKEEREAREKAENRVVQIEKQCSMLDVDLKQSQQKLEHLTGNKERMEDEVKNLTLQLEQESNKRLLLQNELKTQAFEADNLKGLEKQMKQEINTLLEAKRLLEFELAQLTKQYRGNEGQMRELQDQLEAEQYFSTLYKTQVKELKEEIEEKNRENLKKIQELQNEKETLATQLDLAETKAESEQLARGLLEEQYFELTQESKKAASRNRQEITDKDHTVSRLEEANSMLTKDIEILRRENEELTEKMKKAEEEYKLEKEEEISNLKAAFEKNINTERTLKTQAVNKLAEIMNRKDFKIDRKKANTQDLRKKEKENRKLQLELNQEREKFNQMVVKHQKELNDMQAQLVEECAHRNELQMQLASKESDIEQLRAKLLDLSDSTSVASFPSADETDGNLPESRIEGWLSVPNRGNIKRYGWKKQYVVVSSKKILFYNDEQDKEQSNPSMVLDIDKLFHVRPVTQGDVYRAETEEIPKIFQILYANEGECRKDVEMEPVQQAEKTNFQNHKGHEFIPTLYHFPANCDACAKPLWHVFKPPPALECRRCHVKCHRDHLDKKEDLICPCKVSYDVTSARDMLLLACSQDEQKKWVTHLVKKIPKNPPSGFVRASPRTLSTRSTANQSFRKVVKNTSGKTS

Regarding `C[C@H]1CC[C@@H](C(=O)Nc2ccccc2)CN1c1cc(-c2ccc3c(N)n[nH]c3c2)nc(N)n1`, the IC50 at TGF-beta receptor type-1 is above 10 µM; on Aurora kinase B it was 5.01 µM.

In the case of `CC[C@@H]1COCCN1c1cc(-c2ccc3c(N)n[nH]c3c2)nc(N)n1`, the IC50 on TGF-beta receptor type-1 is above 10 µM; on Aurora kinase A, 5.01 µM; in assay [1], above 10 µM; against Aurora kinase B, above 10 µM.

For the compound `Nc1nccc(-c2ccc3c(N)n[nH]c3c2)n1`, the IC50 in assay [2] is 0.398 µM; on TGF-beta receptor type-1, 1.58 µM; at Aurora kinase A, 0.398 µM; in assay [1], 1.58 µM.

Consider `Nc1nc(NC2CCCC2)cc(-c2ccc3c(N)n[nH]c3c2)n1`, for which the IC50 at TGF-beta receptor type-1 is 0.398 µM; against Aurora kinase A, 2.51 µM; in assay [1], 6.31 µM; against Aurora kinase B, 7.94 µM.

As to `CNc1cc(-c2ccc3c(N)n[nH]c3c2)nc(N)n1`, the IC50 in assay [2] is 0.0794 µM; at TGF-beta receptor type-1, 0.398 µM; on Aurora kinase A, 3.16 µM; in assay [1] it was 7.94 µM; against Aurora kinase B, 12.6 µM.

As to `C[C@H]1CC[C@@H](NC(=O)OC(C)(C)C)CN1c1cc(-c2ccc3c(N)[nH]nc3c2)nc(N)n1` (racemic), the IC50 at TGF-beta receptor type-1 was above 10 µM; against Aurora kinase A it was 0.794 µM; in assay [1] it was above 10 µM; against Aurora kinase B, 0.158 µM.

For the compound `Nc1nc(-c2ccc3c(N)n[nH]c3c2)cc(N2CCC[C@@H](C(=O)Nc3ccccc3)C2)n1`, the IC50 in assay [2] is 0.126 µM; on TGF-beta receptor type-1, above 10 µM; against Aurora kinase A it was 7.94 µM; in assay [1], 3.16 µM; against Aurora kinase B, 1.58 µM.

Regarding `Nc1nc(Nc2ccccc2)cc(-c2ccc3c(N)n[nH]c3c2)n1`, the IC50 is 0.02 µM in assay [2]; 0.0251 µM at TGF-beta receptor type-1; 0.2 µM against Aurora kinase A; 2.51 µM in assay [1]; 3.16 µM against Aurora kinase B.

For `Nc1nc(-c2ccc3c(N)n[nH]c3c2)cc(N2CCC[C@H](C(=O)NC3CCCC3)C2)n1`, the IC50 was 0.126 µM in assay [2]; above 10 µM at TGF-beta receptor type-1; above 10 µM on Aurora kinase A; above 10 µM in assay [1]; above 10 µM at Aurora kinase B.

On to `Nc1nc(-c2ccc3c(N)n[nH]c3c2)cc(N2CCC[C@H](C(=O)NC3CCCCC3)C2)n1`, for which the IC50 is 0.0631 µM in assay [2]; above 10 µM at TGF-beta receptor type-1; above 10 µM against Aurora kinase A; 5.01 µM in assay [1]; 3.98 µM against Aurora kinase B.

In the case of `Nc1nc(-c2ccc3c(N)n[nH]c3c2)cc(N2CCCCC2)n1`, the IC50 was 0.251 µM in assay [2]; above 10 µM at TGF-beta receptor type-1; above 10 µM at Aurora kinase A; above 10 µM in assay [1]; above 10 µM at Aurora kinase B.

The compound `CN(C)c1nccc(-c2ccc3c(N)n[nH]c3c2)n1` showed an IC50 in assay [2] of 20 µM.

On to `COc1cc(-c2ccc3c(N)n[nH]c3c2)nc(N)n1`, for which the IC50 in assay [2] was 0.251 µM; on TGF-beta receptor type-1, 3.16 µM; against Aurora kinase A it was 6.31 µM; in assay [1] it was 5.01 µM; against Aurora kinase B, 7.94 µM.

Regarding `C[C@@H]1CC[C@@H](C(=O)Nc2ccccc2)CN1c1cc(-c2ccc3c(N)n[nH]c3c2)nc(N)n1` (racemic), the IC50 is above 10 µM at TGF-beta receptor type-1, above 10 µM in assay [1] and 2 µM on Aurora kinase B.

With `Nc1nc(-c2ccc3c(N)n[nH]c3c2)cc(N2CCCC2)n1`, the IC50 in assay [2] was 0.251 µM; on TGF-beta receptor type-1, above 10 µM; against Aurora kinase A, above 10 µM; in assay [1] it was above 10 µM; at Aurora kinase B, above 10 µM.

As for `Cc1cc(-c2ccc3c(N)n[nH]c3c2)nc(N)n1`, the IC50 on TGF-beta receptor type-1 is 7.94 µM; against Aurora kinase A, 3.98 µM; in assay [1], 3.98 µM; against Aurora kinase B, 12.6 µM.

Consider `C[C@@H]1COCCN1c1cc(-c2ccc3c(N)[nH]nc3c2)nc(N)n1`, for which the IC50 is above 10 µM on TGF-beta receptor type-1, 12.6 µM against Aurora kinase A, 15.8 µM in assay [1] and 25.1 µM against Aurora kinase B.

Regarding `C[C@@H]1CC[C@H](C(=O)Nc2ccccc2)CN1c1cc(-c2ccc3c(N)[nH]nc3c2)nc(N)n1`, the results for the IC50 (on TGF-beta receptor type-1; in assay [1]; at Aurora kinase B) were 6.31 µM, 0.2 µM and 1 µM, respectively.

For the compound `Nc1nc(-c2ccc3c(N)[nH]nc3c2)cc(N2CCO[C@H](C(=O)Nc3ccccc3)C2)n1`, the IC50 at TGF-beta receptor type-1 is above 10 µM; on Aurora kinase A, 1.26 µM; in assay [1] it was 0.794 µM; against Aurora kinase B, 3.16 µM.

In the case of `CCNc1cc(-c2ccc3c(N)[nH]nc3c2)nc(N)n1`, the IC50 on TGF-beta receptor type-1 was 0.501 µM; against Aurora kinase A it was 2.51 µM; in assay [1], above 10 µM; against Aurora kinase B, 10 µM.

For the compound `CC(C)c1cc(-c2ccc3c(N)n[nH]c3c2)nc(N)n1`, the IC50 in assay [2] was 0.251 µM; at TGF-beta receptor type-1, 2 µM; against Aurora kinase A it was 3.16 µM; in assay [1], above 10 µM; against Aurora kinase B, 7.94 µM.

Regarding `CNc1nccc(-c2ccc3c(N)n[nH]c3c2)n1`, in assay [2], the IC50 was 1 µM.

Take `Nc1nc(-c2ccc3c(N)[nH]nc3c2)cc(N2CCOCC2)n1`: the IC50 (at TGF-beta receptor type-1; against Aurora kinase A; in assay [1]; against Aurora kinase B) was above 10 µM throughout.

As to `CN(C)c1cc(-c2ccc3c(N)n[nH]c3c2)nc(N)n1`, the IC50 is 0.501 µM in assay [2]; 5.01 µM at TGF-beta receptor type-1; above 10 µM against Aurora kinase A; above 10 µM in assay [1]; above 10 µM against Aurora kinase B.

As for `Nc1nc(-c2ccc3c(N)n[nH]c3c2)cc(N2CCO[C@@H](C(=O)Nc3ccccc3)C2)n1`, the IC50 in assay [2] is 1 µM; at TGF-beta receptor type-1 it was above 10 µM; against Aurora kinase A it was above 10 µM; in assay [1], above 10 µM; at Aurora kinase B, above 10 µM.

In the case of `C[C@@H]1CO[C@H](C(=O)Nc2ccccc2)CN1c1cc(-c2ccc3c(N)n[nH]c3c2)nc(N)n1`, the IC50 was above 10 µM at TGF-beta receptor type-1, 0.2 µM against Aurora kinase A, 0.158 µM in assay [1] and 0.316 µM on Aurora kinase B.

With `C[C@H]1CC[C@@H](NC(=O)OC(C)(C)C)CN1c1cc(-c2ccc3c(N)[nH]nc3c2)nc(N)n1`, the IC50 against Aurora kinase A was 0.501 µM; on Aurora kinase B it was 1 µM.

Consider `Nc1nc(-c2ccccc2)cc(-c2ccc3c(N)n[nH]c3c2)n1`, for which the IC50 was 0.2 µM in assay [2]; 3.16 µM on TGF-beta receptor type-1; 1.58 µM against Aurora kinase A; above 10 µM in assay [1]; 2 µM against Aurora kinase B.

`Nc1nc(-c2ccc3c(N)n[nH]c3c2)cc(N2CCCC(NC(=O)c3ccccc3)C2)n1` (racemic): the IC50 in assay [2] is 0.0631 µM; at TGF-beta receptor type-1 it was above 10 µM; against Aurora kinase A, 1.26 µM; in assay [1], above 10 µM; on Aurora kinase B it was 0.0251 µM.

As for `CCNc1nccc(-c2ccc3c(N)n[nH]c3c2)n1`, the IC50 in assay [2] was 7.94 µM.

On to `C[C@@H]1CC[C@H](NC(=O)OC(C)(C)C)CN1c1cc(-c2ccc3c(N)n[nH]c3c2)nc(N)n1`, for which the IC50 at TGF-beta receptor type-1 was above 10 µM; against Aurora kinase A it was 2 µM; in assay [1] it was above 10 µM; at Aurora kinase B, 0.0501 µM.

Regarding `C[C@H]1COCCN1c1cc(-c2ccc3c(N)n[nH]c3c2)nc(N)n1`, the IC50 at TGF-beta receptor type-1 is above 10 µM; at Aurora kinase A, above 10 µM; in assay [1], 15.8 µM; against Aurora kinase B it was 25.1 µM.

In turn, `COc1nccc(-c2ccc3c(N)n[nH]c3c2)n1` had an IC50 in assay [2] of 12.6 µM.

The values above are taken from ChEMBL document CHEMBL1765070, “Structure-based design of potent and selective 3-phosphoinositide-dependent kinase-1 (PDK1) inhibitors” (J Med Chem, 2011).
